From patent US20250205259A1, “CLASS OF 7-((FIVE-MEMBERED HETEROCYCLIC)METHYL)-8-CARBOXYLIC ACID-BENZO CYCLIC BORATE DERIVATIVES AND USES THEREOF” (priority 2022, published 2025)
Read-outs that look alike come from different tables or passages of the source.

Key:
Assay type in all cases: biochemical
CTX-M-14 = CTX-M-14 (Escherichia coli, UniProt Q9L5C7); assay: Inhibitory activity on SBL, fluorescent substrate FC-5; conditions: read-out: Inhibitory activity on SBL CTX-M-14 (IC50 class)
VIM-2 = VIM-2 (Escherichia coli, UniProt Q5U7L7); assay: Inhibitory activity on MBL, fluorescent substrate FC-5; conditions: read-out: Inhibitory activity on MBL VIM-2 (IC50 class)
TEM-1 = TEM-1 (Escherichia coli, UniProt P62593); assay: Inhibitory activity on SBL, fluorescent substrate FC-5; conditions: read-out: Inhibitory activity on SBL TEM-1 (IC50 class)
Chain of TEM-1 (P62593 24-286 limits assumed): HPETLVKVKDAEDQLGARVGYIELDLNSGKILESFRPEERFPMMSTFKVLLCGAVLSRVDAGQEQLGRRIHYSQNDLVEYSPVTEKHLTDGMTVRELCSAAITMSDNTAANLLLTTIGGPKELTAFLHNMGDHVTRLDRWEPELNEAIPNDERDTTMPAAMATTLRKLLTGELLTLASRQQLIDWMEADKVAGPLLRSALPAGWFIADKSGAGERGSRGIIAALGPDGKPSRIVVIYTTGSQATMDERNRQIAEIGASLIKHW

KPC-2 = KPC-2 (Klebsiella pneumoniae, UniProt Q9F663); assay: as above; conditions: read-out: Inhibitory activity on SBL KPC-2 (IC50 class)
Chain of KPC-2 (Q9F663 25-293 limits assumed): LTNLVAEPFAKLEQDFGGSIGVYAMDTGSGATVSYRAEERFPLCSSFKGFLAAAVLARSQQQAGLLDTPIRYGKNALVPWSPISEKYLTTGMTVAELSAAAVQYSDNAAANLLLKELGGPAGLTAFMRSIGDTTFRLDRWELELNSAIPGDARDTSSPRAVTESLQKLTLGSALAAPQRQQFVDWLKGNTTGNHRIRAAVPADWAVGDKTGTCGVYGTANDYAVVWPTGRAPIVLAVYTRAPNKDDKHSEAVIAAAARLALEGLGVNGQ

OXA-48 = OXA-48 (Klebsiella pneumoniae, UniProt Q6XEC0); assay: as above; conditions: read-out: Inhibitory activity on SBL OXA-48 (IC50 class)
Chain of OXA-48 (Q6XEC0 23-265 limits assumed): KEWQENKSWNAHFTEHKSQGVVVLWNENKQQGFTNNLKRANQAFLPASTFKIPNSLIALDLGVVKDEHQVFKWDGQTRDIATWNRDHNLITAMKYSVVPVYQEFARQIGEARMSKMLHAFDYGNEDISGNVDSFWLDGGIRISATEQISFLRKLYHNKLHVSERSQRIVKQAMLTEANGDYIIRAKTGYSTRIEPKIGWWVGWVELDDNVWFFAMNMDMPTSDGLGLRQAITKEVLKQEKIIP

IMP-1 = IMP-1 (Serratia marcescens, UniProt P52699); assay: Inhibitory activity on MBL, fluorescent substrate FC-5; conditions: read-out: Inhibitory activity on MBL IMP-1 (IC50 class)
Chain of IMP-1 (P52699 19-246 limits assumed): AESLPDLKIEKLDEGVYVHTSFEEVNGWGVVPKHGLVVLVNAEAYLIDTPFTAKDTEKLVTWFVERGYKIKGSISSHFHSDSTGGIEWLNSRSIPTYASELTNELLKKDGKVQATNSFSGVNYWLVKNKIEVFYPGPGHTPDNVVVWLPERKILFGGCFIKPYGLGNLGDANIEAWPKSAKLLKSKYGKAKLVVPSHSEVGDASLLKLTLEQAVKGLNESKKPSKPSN

NDM-1 = NDM-1 (Klebsiella pneumoniae, UniProt C7C422); assay: as above
Chain of NDM-1 (C7C422 29-270 limits assumed): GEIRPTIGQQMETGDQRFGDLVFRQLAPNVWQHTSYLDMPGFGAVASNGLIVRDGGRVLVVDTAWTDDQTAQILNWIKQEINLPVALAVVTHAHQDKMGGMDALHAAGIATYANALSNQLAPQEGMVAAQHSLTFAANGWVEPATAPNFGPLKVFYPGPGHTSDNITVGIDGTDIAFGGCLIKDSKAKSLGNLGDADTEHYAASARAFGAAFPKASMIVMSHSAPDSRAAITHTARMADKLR

VIM-1 = VIM-1 (Pseudomonas aeruginosa, UniProt A0A0F7KYQ8); assay: as above
SHV-12 = biological target: T1, SHV-12 (UniProt P0AD64, L31Q/G234S/E235K, species not given); assay: Inhibitory activity on SBL, fluorescent substrate FC-5; conditions: read-out: Inhibitory activity on SBL SHV-12 (IC50 class)
T1 sequence (P0AD64 1-286 L31Q/G234S/E235K): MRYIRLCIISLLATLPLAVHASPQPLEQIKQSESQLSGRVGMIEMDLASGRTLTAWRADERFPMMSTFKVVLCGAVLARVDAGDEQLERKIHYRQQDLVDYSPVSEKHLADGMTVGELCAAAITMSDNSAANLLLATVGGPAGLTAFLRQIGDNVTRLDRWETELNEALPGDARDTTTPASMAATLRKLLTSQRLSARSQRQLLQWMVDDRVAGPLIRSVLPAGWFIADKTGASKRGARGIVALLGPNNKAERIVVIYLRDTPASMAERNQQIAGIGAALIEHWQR

NDM-5 = NDM-5 (Klebsiella pneumoniae, UniProt C7C422, M154L/V88L); assay: Inhibitory activity on MBL, fluorescent substrate FC-5
Chain of NDM-5 (C7C422 29-270 V88L/M154L): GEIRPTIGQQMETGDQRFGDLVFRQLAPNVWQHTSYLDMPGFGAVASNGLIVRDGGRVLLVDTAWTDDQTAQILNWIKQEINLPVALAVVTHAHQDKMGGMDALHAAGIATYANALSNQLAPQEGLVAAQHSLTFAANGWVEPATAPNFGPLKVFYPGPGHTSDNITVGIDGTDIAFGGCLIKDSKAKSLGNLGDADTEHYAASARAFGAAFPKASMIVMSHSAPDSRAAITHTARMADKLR

[1] = read-out: Inhibitory activity on MBL NDM-1 (IC50 class)
[2] = read-out: inhibitory activity at a nanomolar-level on NDM-1
[3] = VIM-1 and/or VIM-2, read-out: inhibitory activity at a nanomolar-level on VIM-1 and/or VIM-2
[4] = read-out: Inhibitory activity on MBL VIM-1 (IC50 class)
[5] = read-out: Inhibitory activity on MBL NDM-5 (IC50 class)
[6] = read-out: inhibitory activity at a nanomolar-level on NDM-5

Chain of CTX-M-14 (Q9L5C7 entry or part of it): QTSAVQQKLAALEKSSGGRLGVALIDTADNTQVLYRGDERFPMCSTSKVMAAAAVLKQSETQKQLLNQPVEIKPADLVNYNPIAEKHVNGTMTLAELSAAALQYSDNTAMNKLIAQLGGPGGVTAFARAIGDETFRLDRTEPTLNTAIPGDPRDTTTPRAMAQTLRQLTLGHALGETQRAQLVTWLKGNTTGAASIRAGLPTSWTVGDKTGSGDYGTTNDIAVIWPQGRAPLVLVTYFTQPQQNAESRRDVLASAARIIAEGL

SMILES | IC50 (CTX-M-14) | IC50 (VIM-2) | IC50 (TEM-1) | IC50 (KPC-2) | IC50 (OXA-48) | IC50 (IMP-1) | IC50 (NDM-1; [1]) | IC50 (NDM-1; [2]) | IC50 (VIM-1; [3]) | IC50 (VIM-1; [4]) | IC50 (SHV-12) | IC50 (NDM-5; [5]) | IC50 (NDM-5; [6]) | IC50 (NDM-5; Inhibitory activity on MBL NDM-5 (IC50 class)) | IC50 (NDM-5; inhibitory activity at a nanomolar-level on NDM-5)
O=C(O)c1c(Cn2ccnc2)ccc2c1OB(O)CC2 [Compound 23] | 10 to 1000 nM | 10 to 1000 nM | 10 to 1000 nM | < 10 nM | < 10 nM | 1000 to 100000 nM | 10 to 1000 nM | < 1000 nM | < 1000 nM | 1000 to 100000 nM | 10 to 1000 nM | 10 to 1000 nM | < 1000 nM |  | 
Cc1nccn1Cc1ccc2c(c1C(=O)O)OB(O)CC2 [Compound 24] | 10 to 1000 nM | 10 to 1000 nM | 10 to 1000 nM | < 10 nM | < 10 nM | 1000 to 100000 nM | 1000 to 100000 nM |  | < 1000 nM | 1000 to 100000 nM | 10 to 1000 nM | 1000 to 100000 nM |  |  | 
N#Cc1cccn1Cc1ccc2c(c1C(=O)O)OB(O)CC2 [Compound 25] | 10 to 1000 nM | 1000 to 100000 nM | 10 to 1000 nM | < 10 nM | 10 to 1000 nM | 1000 to 100000 nM | 1000 to 100000 nM |  |  | 1000 to 100000 nM | 10 to 1000 nM | 1000 to 100000 nM |  |  | 
O=C(O)c1c(CN2CC=CC2)ccc2c1OB(O)CC2 [Compound 26] | 10 to 1000 nM | 1000 to 100000 nM | 10 to 1000 nM | < 10 nM | 10 to 1000 nM | 1000 to 100000 nM | 1000 to 100000 nM |  |  | 1000 to 100000 nM | 10 to 1000 nM | 1000 to 100000 nM |  |  | 
O=C(O)c1c(Cn2cc([N+](=O)[O-])cn2)ccc2c1OB(O)CC2 [Compound 31] | 10 to 1000 nM | 10 to 1000 nM | 10 to 1000 nM | < 10 nM | < 10 nM | 1000 to 100000 nM | 10 to 1000 nM | < 1000 nM |  | 1000 to 100000 nM | 10 to 1000 nM | 10 to 1000 nM | < 1000 nM |  | 
Nc1cnn(Cc2ccc3c(c2C(=O)O)OB(O)CC3)c1 [Compound 32] | < 10 nM | 10 to 1000 nM | 10 to 1000 nM | < 10 nM | < 10 nM | 1000 to 100000 nM | 10 to 1000 nM | < 1000 nM |  | 1000 to 100000 nM | 10 to 1000 nM | 10 to 1000 nM | < 1000 nM |  | 
NS(=O)(=O)Nc1cnn(Cc2ccc3c(c2C(=O)O)OB(O)CC3)c1 [Compound 34] | < 10 nM | 10 to 1000 nM | < 10 nM | < 10 nM | < 10 nM | 1000 to 100000 nM | 10 to 1000 nM | < 1000 nM |  | 1000 to 100000 nM | 10 to 1000 nM |  |  | 10 to 1000 nM | < 1000 nM
NCCNCc1cnn(Cc2ccc3c(c2C(=O)O)OB(O)CC3)c1 [Compound 35] | 10 to 1000 nM | 10 to 1000 nM | < 10 nM | 10 to 1000 nM | < 10 nM | 1000 to 100000 nM | 1000 to 100000 nM |  |  | 1000 to 100000 nM | 10 to 1000 nM | 10 to 1000 nM |  |  | 
NS(=O)(=O)NCc1cnn(Cc2ccc3c(c2C(=O)O)OB(O)CC3)c1 [Compound 36] | 10 to 1000 nM | 10 to 1000 nM | < 10 nM | < 10 nM | < 10 nM | 1000 to 100000 nM | 10 to 1000 nM | < 1000 nM |  | 1000 to 100000 nM | 10 to 1000 nM | 10 to 1000 nM | < 1000 nM |  | 
NC1(c2cnn(Cc3ccc4c(c3C(=O)O)OB(O)CC4)c2)CC1 [Compound 40] | 10 to 1000 nM | 10 to 1000 nM | < 10 nM | < 10 nM | 10 to 1000 nM | 1000 to 100000 nM | 1000 to 100000 nM |  |  | 1000 to 100000 nM | 10 to 1000 nM | 10 to 1000 nM |  |  | 
